Article PMC4450297, “Screening Active Compounds from Garcinia Species Native to China Reveals Novel Compounds Targeting the STAT/JAK Signaling Pathway” (BioMed Research International, 2015)

Columns and labels:
Assay in all cases: Cell panel screen (CellTiter-Glo)
Assay type in all cases: cell-based, human
A498 = A498 (listed under Lung), 20 micromolar, 72 hrs
Protocol: (§1) All cells were obtained from the cell bank of the American Type Culture Collection (ATCC) and cultured in the supplier's recommended media supplemented with 10% FBS. The cell panel screen was measured using the CellTiter-Glo assay (Promega, Madison, WI) following a standard protocol. Briefly, cancer cells were seeded in 96-well plates and cultured overnight at 37°C with or without 5% CO2 in an incubator. Each compound was dissolved with limited DMSO and diluted to a certain concentration with culture medium and then added to the corresponding well of the cell plate. The final concentration of compound was 20 μM. The control cells (without treatment) received the same amount of DMSO and were incubated under the same conditions. After 72 h cultivation, 100 μL of the CellTiter-Glo reagent was added directly to each well for 10-minute incubation. The plate was then read on a FlexStation 3 microplate luminometer (Molecular Devices, USA) to monitor the luminescence signal generated by the luciferase-catalyzed reaction of luciferin and ATP. The percent of growth inhibition was calculated using the following formula: (untreated cells − treated cells)/(untreated cells − background without cells) ∗ 100.

A704 = A704 (Kidney), 20 micromolar, 72 hrs
Protocol: as §1

BT-474 = BT-474 (Breast), 20 micromolar, 72 hrs
Protocol: as §1

BT-549 = BT-549 (Breast), 20 micromolar, 72 hrs
Protocol: as §1

Bel-7402 = Bel-7402 (Liver), 20 micromolar, 72 hrs
Protocol: as §1

C3A = C3A (Liver), 20 micromolar, 72 hrs
Protocol: as §1

C8166 = C8166 (Leukemia), 20 micromolar, 72 hrs
Protocol: as §1

CCF-STTG1 = CCF-STTG1 (Brain), 20 micromolar, 72 hrs
Protocol: as §1

CW-2 = CW-2 (Colon), 20 micromolar, 72 hrs
Protocol: as §1

ChaGo-K-1 = ChaGo-K-1 (Lung), 20 micromolar, 72 hrs
Protocol: as §1

Colo 205 = conditions: Colo 205, 20 micromolar, 72 hrs
Protocol: as §1

HCC1395 = HCC1395 (Breast), 20 micromolar, 72 hrs
Protocol: as §1

HCC1569 = HCC1569 (Breast), 20 micromolar, 72 hrs
Protocol: as §1

HCC1599 = HCC1599 (Breast), 20 micromolar, 72 hrs
Protocol: as §1

HCC1937 = HCC1937 (Breast), 20 micromolar, 72 hrs
Protocol: as §1

HEC-1-A = HEC-1-A (Uterus), 20 micromolar, 72 hrs
Protocol: as §1

HGC-27 = HGC-27 (Stomach), 20 micromolar, 72 hrs
Protocol: as §1

HPAF-II = HPAF-II (Pancreas), 20 micromolar, 72 hrs
Protocol: as §1

HT-1197 = HT-1197 (Urinary bladder), 20 micromolar, 72 hrs
Protocol: as §1

J82 = J82 (Urinary bladder), 20 micromolar, 72 hrs
Protocol: as §1

M059J = M059J (Brain), 20 micromolar, 72 hrs
Protocol: as §1

MSTO-211-H = MSTO-211-H (Lung), 20 micromolar, 72 hrs
Protocol: as §1

NCI-H1623 = NCI-H1623 (Lung), 20 micromolar, 72 hrs
Protocol: as §1

NCI-H1694 = NCI-H1694 (Lung), 20 micromolar, 72 hrs
Protocol: as §1

NCI-H1770 = NCI-H1770 (Lung), 20 micromolar, 72 hrs
Protocol: as §1

NCI-H2347 = NCI-H2347 (Lung), 20 micromolar, 72 hrs
Protocol: as §1

NCI-H2405 = NCI-H2405 (Lung), 20 micromolar, 72 hrs
Protocol: as §1

NCI-H28 = NCI-H28 (Lung), 20 micromolar, 72 hrs
Protocol: as §1

NCI-H524 = NCI-H524 (Lung), 20 micromolar, 72 hrs
Protocol: as §1

Panc 03.27 = Panc 03.27 (Pancreas), 20 micromolar, 72 hrs
Protocol: as §1

RL95 = RL95 (Uterus), 20 micromolar, 72 hrs
Protocol: as §1

SW13 = SW13 (Adrenal gland), 20 micromolar, 72 hrs
Protocol: as §1

T47D = T47D (Breast), 20 micromolar, 72 hrs
Protocol: as §1

T98G = T98G (Brain), 20 micromolar, 72 hrs
Protocol: as §1

TCCSUP = TCCSUP (Urinary bladder), 20 micromolar, 72 hrs
Protocol: as §1

ZR-75-30 = ZR-75-30 (Breast), 20 micromolar, 72 hrs
Protocol: as §1

Compound | Percent Inhibition (A498) [%] | Percent Inhibition (A704) [%] | Percent Inhibition (BT-474) [%] | Percent Inhibition (BT-549) [%] | Percent Inhibition (Bel-7402) [%] | Percent Inhibition (C3A) [%] | Percent Inhibition (C8166) [%] | Percent Inhibition (CCF-STTG1) [%] | Percent Inhibition (CW-2) [%] | Percent Inhibition (ChaGo-K-1) [%] | Percent Inhibition (Colo 205) [%] | Percent Inhibition (HCC1395) [%] | Percent Inhibition (HCC1569) [%] | Percent Inhibition (HCC1599) [%] | Percent Inhibition (HCC1937) [%] | Percent Inhibition (HEC-1-A) [%] | Percent Inhibition (HGC-27) [%] | Percent Inhibition (HPAF-II) [%] | Percent Inhibition (HT-1197) [%] | Percent Inhibition (J82) [%] | also measured
COc1c(CC=C(C)C)cc2c(=O)c3c(O)cc(O)cc3oc2c1O [gl-16] | 34 | 9 | 16 | 27 | 17 | 45 | 77 | 25 | 55 | 57 | 57 | 69 | 50 | 67 | 50 | 46 | 58 | 26 | 37 | 50 | Percent Inhibition (M059J): 33%; Percent Inhibition (MSTO-211-H): 61%; Percent Inhibition (NCI-H1623): 18%; Percent Inhibition (NCI-H1694): 55%; Percent Inhibition (NCI-H1770): 21%; Percent Inhibition (NCI-H2347): 42%; Percent Inhibition (NCI-H2405): 12%; Percent Inhibition (NCI-H28): 41%; Percent Inhibition (NCI-H524): 56%; Percent Inhibition (Panc 03.27): 47%; Percent Inhibition (RL95): 45%; Percent Inhibition (SW13): 41%; Percent Inhibition (T47D): 36%; Percent Inhibition (T98G): 28%; Percent Inhibition (TCCSUP): 63%; Percent Inhibition (ZR-75-30): 93%
COc1c(O)c(O)c2c(=O)c3c(CC=C(C)C)c(CC=C(C)C)c(O)c(O)c3oc2c1CC=C(C)C [Compound N-7] | 13 | 1 | -21 | -14 | 15 | 24 | 10 | 6 | 22 | 4 | 9 | 22 | 5 | 8 | -5 | -17 | 0 | 9 | 13 | 17 | Percent Inhibition (M059J): 10%; Percent Inhibition (MSTO-211-H): -1%; Percent Inhibition (NCI-H1623): -8%; Percent Inhibition (NCI-H1694): 25%; Percent Inhibition (NCI-H1770): -6%; Percent Inhibition (NCI-H2347): -18%; Percent Inhibition (NCI-H2405): -7%; Percent Inhibition (NCI-H28): 21%; Percent Inhibition (NCI-H524): -30%; Percent Inhibition (Panc 03.27): -24%; Percent Inhibition (RL95): -16%; Percent Inhibition (SW13): -14%; Percent Inhibition (T47D): -9%; Percent Inhibition (T98G): 17%; Percent Inhibition (TCCSUP): 18%; Percent Inhibition (ZR-75-30): -11%
